Test: Example 1: kidney biomarkers (urea nitrogen, creatinine, GFR) in short bowel syndrome patients, every four weeks for 24 weeks; also sorted by >5% change from baseline
Format: in vivo, Human
Settings: for CREATININE (RATE BLANKED) change from baseline −5% <= and <=5%, number of patients / CREATININE (RATE BLANKED) change from baseline −5% <= and <=5%, percent of patients / GFR change from baseline <−5%, number of patients / GFR change from baseline <−5%, percent of patients / GFR change from baseline >5%, number of patients / GFR change from baseline >5%, percent of patients / GFR change from baseline −5% <= and <=5%, number of patients / GFR change from baseline −5% <= and <=5%, percent of patients / UREA NITROGEN change from baseline <−5%, number of patients / UREA NITROGEN change from baseline <−5%, percent of patients / UREA NITROGEN change from baseline >5%, number of patients / UREA NITROGEN change from baseline >5%, percent of patients / UREA NITROGEN change from baseline −5% <= and <=5%, number of patients / UREA NITROGEN change from baseline −5% <= and <=5%, percent of patients / CREATININE (RATE BLANKED) change from baseline <−5%, number of patients / CREATININE (RATE BLANKED) change from baseline <−5%, percent of patients / CREATININE (RATE BLANKED) change from baseline >5%, number of patients / CREATININE (RATE BLANKED) change from baseline >5%, percent of patients: 0.1 mg/kg/day
Description: Human patients with short bowel syndrome were divided into three groups: a control group (16 total individuals) to receive placebo, an experimental group (35 total individuals) to receive teduglutide at 0.05 mg/kg/day throughout the study, and an experimental group (32 total individuals) to receive teduglutide at 0.1 mg/kg/day throughout the study. Patients were treated by subcutaneous injection of placebo or the appropriate dose of teduglutide. As individuals with short bowel syndrome are likely to experience associated liver and kidney disease, known biomarkers of liver and kidney function were monitored every four weeks, for 24 weeks. The liver biomarkers tested included total bilirubin, ALT and AST and ALP. The kidney biomarkers tested included urea nitrogen, creatinine and GFR. Before administration of placebo or teduglutide, diagnostic biomarker levels were tested to establish a baseline for each individual.
To visualize the effect of GLP-2 on the levels of the diagnostic biomarkers, the average change from baseline was calculated for the placebo and teduglutide treated groups for each visit after a baseline was established. The average change from baseline of each group is depicted in FIGS. 1-7. The numerical figures for each diagnostic biomarker at each time point are depicted in Table 1.
The raw data for this sorting is reproduced in Table 2 below.

Compound: CC[C@H](C)[C@H](NC(=O)[C@H](Cc1ccccc1)NC(=O)[C@H](CC(=O)O)NC(=O)[C@H](CCCNC(=N)N)NC(=O)[C@H](C)NC(=O)[C@H](C)NC(=O)[C@H](CC(C)C)NC(=O)[C@H](CC(N)=O)NC(=O)[C@H](CC(=O)O)NC(=O)[C@H](CC(C)C)NC(=O)[C@@H](NC(=O)[C@@H](NC(=O)[C@H](CC(N)=O)NC(=O)[C@H](CCSC)NC(=O)[C@H](CCC(=O)O)NC(=O)[C@H](CC(=O)O)NC(=O)[C@H](CO)NC(=O)[C@H](Cc1ccccc1)NC(=O)[C@H](CO)NC(=O)CNC(=O)[C@H](CC(=O)O)NC(=O)CNC(=O)[C@@H](N)Cc1c[nH]cn1)[C@@H](C)O)[C@@H](C)CC)C(=O)N[C@@H](CC(N)=O)C(=O)N[C@@H](Cc1c[nH]c2ccccc12)C(=O)N[C@@H](CC(C)C)C(=O)N[C@H](C(=O)N[C@@H](CCC(N)=O)C(=O)N[C@H](C(=O)N[C@@H](CCCCN)C(=O)N[C@H](C(=O)N[C@H](C(=O)N[C@@H](CC(=O)O)C(=O)O)[C@@H](C)O)[C@@H](C)CC)[C@@H](C)O)[C@@H](C)CC [teduglutide]
- CREATININE (RATE BLANKED) change from baseline −5% <= and <=5%, number of patients (week 12): 4
- CREATININE (RATE BLANKED) change from baseline −5% <= and <=5%, percent of patients (week 12): (12.5%)
- GFR change from baseline <−5%, number of patients (week 12): 11
- GFR change from baseline <−5%, percent of patients (week 12): (34.4%)
- GFR change from baseline >5%, number of patients (week 12): 9
- GFR change from baseline >5%, percent of patients (week 12): (28.1%)
- GFR change from baseline −5% <= and <=5%, number of patients (week 12): 10
- GFR change from baseline −5% <= and <=5%, percent of patients (week 12): (31.3%)
- UREA NITROGEN change from baseline <−5%, number of patients (week 12): 13
- UREA NITROGEN change from baseline <−5%, percent of patients (week 12): (40.6%)
- UREA NITROGEN change from baseline >5%, number of patients (week 12): 14
- UREA NITROGEN change from baseline >5%, percent of patients (week 12): (43.8%)
- UREA NITROGEN change from baseline −5% <= and <=5%, number of patients (week 12): 3
- UREA NITROGEN change from baseline −5% <= and <=5%, percent of patients (week 12): (9.4%)
- CREATININE (RATE BLANKED) change from baseline <−5%, number of patients (week 16): 10
- CREATININE (RATE BLANKED) change from baseline <−5%, percent of patients (week 16): (31.3%)
- CREATININE (RATE BLANKED) change from baseline >5%, number of patients (week 16): 12
- CREATININE (RATE BLANKED) change from baseline >5%, percent of patients (week 16): (37.5%)
- CREATININE (RATE BLANKED) change from baseline −5% <= and <=5%, number of patients (week 16): 8
- CREATININE (RATE BLANKED) change from baseline −5% <= and <=5%, percent of patients (week 16): (25.0%)
- GFR change from baseline <−5%, number of patients (week 16): 12
- GFR change from baseline <−5%, percent of patients (week 16): (37.5%)
- GFR change from baseline >5%, number of patients (week 16): 12
- GFR change from baseline >5%, percent of patients (week 16): (37.5%)
- GFR change from baseline −5% <= and <=5%, number of patients (week 16): 6
- GFR change from baseline −5% <= and <=5%, percent of patients (week 16): (18.8%)
- UREA NITROGEN change from baseline <−5%, number of patients (week 16): 9
- UREA NITROGEN change from baseline <−5%, percent of patients (week 16): (28.1%)
- UREA NITROGEN change from baseline >5%, number of patients (week 16): 9
- UREA NITROGEN change from baseline >5%, percent of patients (week 16): (28.1%)
- UREA NITROGEN change from baseline −5% <= and <=5%, number of patients (week 16): 12
- UREA NITROGEN change from baseline −5% <= and <=5%, percent of patients (week 16): (37.5%)
- CREATININE (RATE BLANKED) change from baseline <−5%, number of patients (week 20): 7
- CREATININE (RATE BLANKED) change from baseline <−5%, percent of patients (week 20): (21.9%)
- CREATININE (RATE BLANKED) change from baseline >5%, number of patients (week 20): 13
- CREATININE (RATE BLANKED) change from baseline >5%, percent of patients (week 20): (40.6%)
- CREATININE (RATE BLANKED) change from baseline −5% <= and <=5%, number of patients (week 20): 9
- CREATININE (RATE BLANKED) change from baseline −5% <= and <=5%, percent of patients (week 20): (28.1%)
- GFR change from baseline <−5%, number of patients (week 20): 11
- GFR change from baseline <−5%, percent of patients (week 20): (34.4%)
- GFR change from baseline >5%, number of patients (week 20): 8
- GFR change from baseline >5%, percent of patients (week 20): (25.0%)
- GFR change from baseline −5% <= and <=5%, number of patients (week 20): 10
- GFR change from baseline −5% <= and <=5%, percent of patients (week 20): (31.3%)
- UREA NITROGEN change from baseline <−5%, number of patients (week 20): 12
- UREA NITROGEN change from baseline <−5%, percent of patients (week 20): (37.5%)
- UREA NITROGEN change from baseline >5%, number of patients (week 20): 11
- UREA NITROGEN change from baseline >5%, percent of patients (week 20): (34.4%)
- UREA NITROGEN change from baseline −5% <= and <=5%, number of patients (week 20): 6
- UREA NITROGEN change from baseline −5% <= and <=5%, percent of patients (week 20): (18.8%)
- CREATININE (RATE BLANKED) change from baseline <−5%, number of patients (week 24): 11
- CREATININE (RATE BLANKED) change from baseline <−5%, percent of patients (week 24): (34.4%)
- CREATININE (RATE BLANKED) change from baseline >5%, number of patients (week 24): 9
- CREATININE (RATE BLANKED) change from baseline >5%, percent of patients (week 24): (28.1%)
- CREATININE (RATE BLANKED) change from baseline −5% <= and <=5%, number of patients (week 24): 9
- CREATININE (RATE BLANKED) change from baseline −5% <= and <=5%, percent of patients (week 24): (28.1%)
- GFR change from baseline <−5%, number of patients (week 24): 6
- GFR change from baseline <−5%, percent of patients (week 24): (18.8%)
- GFR change from baseline >5%, number of patients (week 24): 14
- GFR change from baseline >5%, percent of patients (week 24): (43.8%)
- GFR change from baseline −5% <= and <=5%, number of patients (week 24): 9
- GFR change from baseline −5% <= and <=5%, percent of patients (week 24): (28.1%)
- UREA NITROGEN change from baseline <−5%, number of patients (week 24): 14
- UREA NITROGEN change from baseline <−5%, percent of patients (week 24): (43.8%)
- UREA NITROGEN change from baseline >5%, number of patients (week 24): 13
- UREA NITROGEN change from baseline >5%, percent of patients (week 24): (40.6%)
- UREA NITROGEN change from baseline −5% <= and <=5%, number of patients (week 24): 2
- UREA NITROGEN change from baseline −5% <= and <=5%, percent of patients (week 24): (6.3%)
- percent of the group experiencing a decrease in GFR greater than 5% vs placebo (both groups receiving teduglutide): always less than the percent of the group receiving placebo
- creatinine levels, average change versus baseline (FIG. 9) (groups receiving teduglutide, placebo increased): remained stable or decreased slightly
